Assay results reported in ChEMBL document CHEMBL4402560, “Sarco/Endoplasmic Reticulum Calcium ATPase Inhibitors: Beyond Anticancer Perspective” (J Med Chem, 2020).

What was measured:
[1] = biological target: T1, Sarcoplasmic/endoplasmic reticulum calcium ATPase 1 (Oryctolagus cuniculus, UniProt P04191); experiment: Inhibition of rabbit skeletal muscle microsomes SERCA1a incubated for 10 mins by enzyme-coupled method
[2] = biological target: T1, Sarcoplasmic/endoplasmic reticulum calcium ATPase 1; experiment: Inhibition of rabbit skeletal muscle microsomes SERCA1a
[3] = biological target: T1, Sarcoplasmic/endoplasmic reticulum calcium ATPase 1; experiment: Inhibition of rabbit skeletal muscle microsomes SERCA1a by enzyme-coupled method
[4] = Inhibition of porcine cerebellar microsomes SERCA2b by enzyme-coupled method; set-up: species or system Sus scrofa domesticus, Cerebellum
[5] = biological target: T1, Sarcoplasmic/endoplasmic reticulum calcium ATPase 1; experiment: Inhibition of rabbit skeletal muscle microsomes FITC-labelled SERCA1a incubated for 1 hr by fluorescence spectrophotometric method
[6] = Inhibition of porcine cerebellar microsomes FITC-labelled SERCA2b incubated for 1 hr by fluorescence spectrophotometric method
[7] = biological target: T1, Sarcoplasmic/endoplasmic reticulum calcium ATPase 1; experiment: Inhibition of rabbit skeletal muscle microsomes SERCA1a preincubated for 10 mins followed by addition of ATP and measured after 40 mins
[8] = biological target: T1, Sarcoplasmic/endoplasmic reticulum calcium ATPase 1; experiment: Inhibition of SERCA1 in rabbit skeletal muscle microsomes assessed as decrease in NADH absorbance by NADH-coupled enzyme assay; set-up: species or system Muscle tissue
[9] = biological target: T1, Sarcoplasmic/endoplasmic reticulum calcium ATPase 1; experiment: Inhibition of rabbit SERCA1a preincubated for 10 mins followed by addition of ATP and measured after 10 mins by colorimetric method
[10] = Inhibition of Porcine cerebellar microsomes SERCA preincubated for 10 mins followed by addition of ATP and measured after 10 mins by colorimetric method; set-up: species or system Sus scrofa domesticus, Cerebellum
[11] = Inhibition of Porcine cardiac microsomes SERCA preincubated for 10 mins followed by addition of ATP and measured after 10 mins by colorimetric method; set-up: species or system Sus scrofa domesticus, Heart
Sus scrofa domesticus = species on record: Sus scrofa domesticus; experiment: Inhibition of Porcine cerebellar microsomes SERCA at 200 uM preincubated for 10 mins followed by addition of ATP and measured after 10 mins by colorimetric method relative to control; conditions: Cerebellum
[12] = biological target: T2, Sarcoplasmic/endoplasmic reticulum calcium ATPase 2 (Homo sapiens, UniProt P16615); experiment: Inhibition of SERCA2a (unknown origin)
T2 sequence (P16615 whole entry): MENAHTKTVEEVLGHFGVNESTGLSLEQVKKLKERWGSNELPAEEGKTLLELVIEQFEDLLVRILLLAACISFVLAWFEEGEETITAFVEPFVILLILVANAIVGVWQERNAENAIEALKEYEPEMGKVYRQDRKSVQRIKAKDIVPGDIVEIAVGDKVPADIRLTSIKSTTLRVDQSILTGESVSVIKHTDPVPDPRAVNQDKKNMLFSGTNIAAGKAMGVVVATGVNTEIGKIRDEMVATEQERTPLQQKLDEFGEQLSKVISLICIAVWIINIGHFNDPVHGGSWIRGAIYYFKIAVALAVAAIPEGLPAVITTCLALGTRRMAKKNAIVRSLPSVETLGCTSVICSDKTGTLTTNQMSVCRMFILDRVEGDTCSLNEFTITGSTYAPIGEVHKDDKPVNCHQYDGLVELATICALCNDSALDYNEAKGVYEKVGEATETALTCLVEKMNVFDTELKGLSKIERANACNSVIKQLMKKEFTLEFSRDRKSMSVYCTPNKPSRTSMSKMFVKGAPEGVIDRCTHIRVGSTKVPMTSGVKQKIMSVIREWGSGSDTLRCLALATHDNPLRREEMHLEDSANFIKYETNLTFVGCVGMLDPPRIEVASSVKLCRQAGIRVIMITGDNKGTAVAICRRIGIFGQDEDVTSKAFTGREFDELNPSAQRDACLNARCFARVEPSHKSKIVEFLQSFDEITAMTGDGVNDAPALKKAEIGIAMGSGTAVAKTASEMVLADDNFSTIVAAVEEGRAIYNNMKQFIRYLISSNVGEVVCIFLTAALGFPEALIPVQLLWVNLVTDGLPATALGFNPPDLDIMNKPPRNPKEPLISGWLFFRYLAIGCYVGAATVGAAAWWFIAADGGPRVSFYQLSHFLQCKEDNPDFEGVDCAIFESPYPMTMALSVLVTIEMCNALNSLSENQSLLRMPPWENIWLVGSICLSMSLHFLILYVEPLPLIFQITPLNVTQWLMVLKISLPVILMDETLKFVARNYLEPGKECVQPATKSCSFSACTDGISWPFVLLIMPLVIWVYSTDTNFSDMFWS

MIA PaCa-2 = experiment: Antiproliferative activity against human MIAPaCa2 cells; type: functional, cell-based
BJ = experiment: Antiproliferative activity against human BJ cells; type: functional, cell-based
MRC5 = experiment: Antiproliferative activity against human MRC5 cells; type: functional, cell-based
[13] = biological target: T1, Sarcoplasmic/endoplasmic reticulum calcium ATPase 1; experiment: Inhibition of rabbit SERCA1b expressed in COS7 cells microsomal membranes preincubated for 10 mins followed by addition of ATP and measured after 40 mins by ELISA method; type: cell-based
[14] = biological target: T2, Sarcoplasmic/endoplasmic reticulum calcium ATPase 2; experiment: Inhibition of human SERCA2b expressed in COS7 cells microsomal membranes preincubated for 10 mins followed by addition of ATP and measured after 40 mins by ELISA method; type: cell-based
[15] = biological target: Sarcoplasmic/endoplasmic reticulum calcium ATPase 3 (Homo sapiens, UniProt Q93084); experiment: Inhibition of human SERCA3a expressed in COS7 cells microsomal membranes preincubated for 10 mins followed by addition of ATP and measured after 40 mins by ELISA method; type: cell-based
Sequence of Sarcoplasmic/endoplasmic reticulum calcium ATPase 3 (Q93084 whole entry): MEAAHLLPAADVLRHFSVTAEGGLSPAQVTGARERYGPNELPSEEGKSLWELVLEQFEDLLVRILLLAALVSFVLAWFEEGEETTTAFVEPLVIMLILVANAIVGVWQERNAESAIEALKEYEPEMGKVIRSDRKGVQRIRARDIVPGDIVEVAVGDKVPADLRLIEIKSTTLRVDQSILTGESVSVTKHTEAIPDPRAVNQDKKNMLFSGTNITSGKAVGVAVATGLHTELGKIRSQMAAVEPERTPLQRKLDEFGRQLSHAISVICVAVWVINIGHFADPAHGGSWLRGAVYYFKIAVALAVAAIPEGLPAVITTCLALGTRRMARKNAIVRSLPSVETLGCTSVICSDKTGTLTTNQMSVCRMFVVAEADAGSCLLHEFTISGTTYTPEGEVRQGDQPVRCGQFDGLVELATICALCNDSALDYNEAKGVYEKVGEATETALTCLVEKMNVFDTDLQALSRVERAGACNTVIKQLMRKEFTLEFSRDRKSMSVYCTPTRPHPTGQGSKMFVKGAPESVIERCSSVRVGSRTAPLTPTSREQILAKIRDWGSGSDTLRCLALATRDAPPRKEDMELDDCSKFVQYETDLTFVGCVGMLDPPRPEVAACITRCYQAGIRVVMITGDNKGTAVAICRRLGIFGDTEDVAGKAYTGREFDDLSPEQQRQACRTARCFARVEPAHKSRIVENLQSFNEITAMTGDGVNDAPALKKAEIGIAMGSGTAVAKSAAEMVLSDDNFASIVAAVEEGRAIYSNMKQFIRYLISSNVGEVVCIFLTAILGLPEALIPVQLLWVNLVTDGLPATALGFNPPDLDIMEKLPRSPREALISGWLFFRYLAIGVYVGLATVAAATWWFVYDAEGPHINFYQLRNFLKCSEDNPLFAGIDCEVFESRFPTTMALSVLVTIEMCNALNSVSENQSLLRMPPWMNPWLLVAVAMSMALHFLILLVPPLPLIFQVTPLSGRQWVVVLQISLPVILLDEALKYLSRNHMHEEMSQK

[16] = Inhibition of SERCA2a in porcine cardiac microsomes; set-up: species or system Sus scrofa domesticus, Heart
[17] = biological target: T1, Sarcoplasmic/endoplasmic reticulum calcium ATPase 1; experiment: Inhibition of rabbit skeletal muscle microsomes SERCA1a preincubated for 10 mins followed by addition of ATP and measured after 30 mins

T1 sequence (P04191 whole entry): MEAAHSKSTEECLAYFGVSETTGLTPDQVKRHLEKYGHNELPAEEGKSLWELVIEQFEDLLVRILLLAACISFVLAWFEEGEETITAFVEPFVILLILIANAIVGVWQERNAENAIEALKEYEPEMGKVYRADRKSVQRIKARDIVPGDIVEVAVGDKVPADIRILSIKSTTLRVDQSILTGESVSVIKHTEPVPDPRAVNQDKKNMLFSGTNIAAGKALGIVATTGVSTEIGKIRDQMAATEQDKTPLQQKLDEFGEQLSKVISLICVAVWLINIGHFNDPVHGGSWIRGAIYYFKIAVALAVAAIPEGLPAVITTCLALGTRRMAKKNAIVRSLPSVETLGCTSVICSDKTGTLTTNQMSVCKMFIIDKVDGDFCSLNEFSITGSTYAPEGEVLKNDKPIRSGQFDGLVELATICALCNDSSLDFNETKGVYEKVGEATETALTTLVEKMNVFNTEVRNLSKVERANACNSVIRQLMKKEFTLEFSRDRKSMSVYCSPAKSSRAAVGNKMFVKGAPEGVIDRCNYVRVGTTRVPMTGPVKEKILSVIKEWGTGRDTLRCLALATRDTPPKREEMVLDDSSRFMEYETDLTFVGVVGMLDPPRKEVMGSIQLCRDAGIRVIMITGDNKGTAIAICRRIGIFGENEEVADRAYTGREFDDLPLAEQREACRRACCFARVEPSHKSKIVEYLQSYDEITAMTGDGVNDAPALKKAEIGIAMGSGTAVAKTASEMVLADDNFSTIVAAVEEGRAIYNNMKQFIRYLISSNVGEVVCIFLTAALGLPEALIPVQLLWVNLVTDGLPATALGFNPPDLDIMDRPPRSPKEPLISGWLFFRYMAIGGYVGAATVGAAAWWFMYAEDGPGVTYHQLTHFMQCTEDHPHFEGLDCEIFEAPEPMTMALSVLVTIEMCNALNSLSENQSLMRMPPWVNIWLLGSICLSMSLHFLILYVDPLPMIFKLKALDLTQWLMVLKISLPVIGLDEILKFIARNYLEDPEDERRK

CN1CCN(CCCN2c3ccccc3Sc3ccc(C(F)(F)F)cc32)CC1 [TRIFLUOPERAZINE]
IC50 [1]: 45 µM

CC[C@H](C)[C@H](NC(=O)CCCCCNC(=O)[C@H](Cc1ccc(O)cc1)NC(=O)[C@H](CCCNC(=N)N)NC(=O)[C@@H]1CCCN1C(=O)[C@H](CCCNC(=N)N)NC(=O)[C@H](CC(N)=O)NC(=O)[C@H](CCC(N)=O)NC(=O)[C@@H](Cc1ccc(O)cc1)N(C)C(=O)Cc1ccccc1)C(=O)N[C@@H](CC(N)=O)C(=O)N[C@@H](CC(C)C)C(=O)N[C@@H](CCCCN)C(=O)N[C@@H](C)C(=O)N[C@@H](CC(C)C)C(=O)N[C@@H](C)C(=O)N[C@@H](C)C(=O)N[C@@H](CC(C)C)C(=O)N[C@@H](C)C(=O)N[C@@H](CCCCN)C(=O)N[C@@H](CCCCN)C(=O)N[C@H](C(=O)N[C@@H](CC(C)C)C(N)=O)[C@@H](C)CC
IC50 [2]: 0.27 to 0.3 µM

CCOC(=O)CC1C(C(=O)OCC)=C(N)Oc2ccc(-c3ccccc3)cc21 (centres undefined)
IC50 [3]: 23 µM | IC50 [4]: 23 µM

NCCOB(c1ccccc1)c1ccccc1
IC50 [5]: 70 to 700 µM | IC50 [6]: 70 to 700 µM

O=c1c(O)c(-c2ccc(O)c(O)c2)oc2cc(O)cc(O)c12 [QUERCETIN]
IC50 [7]: 9 µM

CCCCC/C=C\C/C=C\CCCCCCCC(=O)O[C@@H]1[C@@H](O)[C@@H](O)[C@H](OC[C@H]2O[C@@H](Oc3c(-c4ccc(O)c(O)c4)oc4cc(O)cc(O)c4c3=O)[C@H](O)[C@@H](O)[C@@H]2O)O[C@H]1C
IC50 [8]: 28 µM

O=c1c(O)c(-c2ccccc2)oc2ccc(O)cc12
IC50 [7]: 6 µM

CO[C@H]1C[C@@H]2CC[C@@H](C)[C@@](O)(O2)C(=O)C(=O)N2CCCC[C@H]2C(=O)O[C@H]([C@H](C)C[C@@H]2CC[C@@H](O)[C@H](OC)C2)CC(=O)[C@H](C)/C=C(\C)[C@@H](O)[C@@H](OC)C(=O)[C@H](C)C[C@H](C)/C=C/C=C/C=C/1C [SIROLIMUS]
IC50 [9]: 77 µM | IC50 [10]: 77 µM | IC50 [11]: 77 µM | inhibition (Sus scrofa domesticus): 80%

C/C=C/C/C(C)=C\[C@H]1C/C=C/C=C/C[C@H](C)/C=C(\C)[C@@H](OC)C/C=C/[C@@H](O)CC(=O)O1
Ki [2]: 0.017 µM | Ki [12]: 0.027 µM

C/C=C(/C)C(=O)O[C@@H]1C[C@H]2C(=C1C)[C@@H]1OC(=O)[C@@](C)(O)[C@@]1(O)[C@@H](OC(=O)CCCCn1cc([C@]3(O)CC[C@H]4[C@@H]5CCC6=CC(O)CC[C@]6(C)[C@H]5CC[C@@]43C)nn1)C[C@]2(C)OC(C)=O (some centres undefined)
IC50 (MIA PaCa-2): 13.7 to 50 µM | IC50 (BJ): 13.7 to 50 µM | IC50 (MRC5): > 50 µM

CCCCCCCCCCCCCCCCCC(=O)O[C@@H]1[C@@H](O)[C@@H](O)[C@H](OC[C@H]2O[C@@H](Oc3c(-c4ccc(O)c(O)c4)oc4cc(O)cc(O)c4c3=O)[C@H](O)[C@@H](O)[C@@H]2O)O[C@H]1C
IC50 [8]: 35 µM

C/C=C(/C)C(=O)O[C@H]1C(C)=C2[C@H]([C@@H]1OC(=O)CCCCCCC)[C@](C)(OC(C)=O)C[C@H](OC(=O)CCC)[C@@]1(O)[C@H]2OC(=O)[C@@]1(C)O
Ki [2]: 0.011 µM | IC50 [13]: 0.21 to 12 µM | IC50 [14]: 0.21 to 12 µM | IC50 [15]: 0.21 to 12 µM

C/C(O)=C1\C(=O)[C@@H]2[C@H]3c4c[nH]c5cccc(c45)C[C@H]3C(C)(C)N2C1=O
IC50 [13]: 0.09 to 2.5 µM | IC50 [14]: 0.09 to 2.5 µM | IC50 [15]: 0.09 to 2.5 µM

CC(C)(c1cc(Br)c(O)c(Br)c1)c1cc(Br)c(O)c(Br)c1
IC50 [3]: 0.5 to 2.3 µM | IC50 [4]: 0.5 to 2.3 µM

O=C1CSC(c2ccccc2Cl)c2cc(Cl)ccc2N1 (centres undefined)
IC50 [2]: 6.6 µM | IC50 [16]: 9.9 µM

Cc1cc(O)ccc1Cl [CHLOROCRESOL]
IC50 [17]: 2800 µM

IVERMECTIN
IC50 [10]: 15 µM | IC50 [11]: 15 µM

C[C@H](C[C@H](O)[C@H]1OC1(C)C)C1=C2C[C@H](O)[C@H]3[C@@]4(C)CCC(=O)C(C)(C)[C@@H]4CC[C@]3(C)[C@@]2(C)CC1 [ALISOL B]
IC50 [3]: 27 to 53 µM | IC50 [4]: 27 µM

C/C=C(/C)C(=O)O[C@@H]1C[C@H]2C(=C1C)[C@@H]1OC(=O)[C@@](C)(O)[C@@]1(O)[C@@H](OC(=O)CCCCn1cc([C@]3(O)CC[C@H]4[C@@H]5CCc6cc(OC)ccc6[C@H]5CC[C@@]43C)nn1)C[C@]2(C)OC(C)=O
IC50 (MIA PaCa-2): > 50 µM | IC50 (BJ): 17 µM | IC50 (MRC5): 10.1 µM

C/C=C/C/C(C)=C\[C@H]1C/C=C/C=C/C[C@H](C)/C=C(\C)[C@@H](OC)C/C=C/[C@@H](O[C@@H]2O[C@H](CO)[C@@H](O)[C@H](OC)[C@H]2O)CC(=O)O1
Ki [12]: 0.011 µM
